Consider three compounds from US20250313558A1, “IMIDAZOLIDINE DERIVATIVE OR PHARMACEUTICALLY ACCEPTABLE SALT THEREOF, AND USE THEREOF” (CELLUS INC., priority 2023, published 2025).

Holding throughout (format): biochemical
The target of one experiment is T1, ADAM10 (Homo sapiens, UniProt O14672).
T1 sequence (O14672 214-748): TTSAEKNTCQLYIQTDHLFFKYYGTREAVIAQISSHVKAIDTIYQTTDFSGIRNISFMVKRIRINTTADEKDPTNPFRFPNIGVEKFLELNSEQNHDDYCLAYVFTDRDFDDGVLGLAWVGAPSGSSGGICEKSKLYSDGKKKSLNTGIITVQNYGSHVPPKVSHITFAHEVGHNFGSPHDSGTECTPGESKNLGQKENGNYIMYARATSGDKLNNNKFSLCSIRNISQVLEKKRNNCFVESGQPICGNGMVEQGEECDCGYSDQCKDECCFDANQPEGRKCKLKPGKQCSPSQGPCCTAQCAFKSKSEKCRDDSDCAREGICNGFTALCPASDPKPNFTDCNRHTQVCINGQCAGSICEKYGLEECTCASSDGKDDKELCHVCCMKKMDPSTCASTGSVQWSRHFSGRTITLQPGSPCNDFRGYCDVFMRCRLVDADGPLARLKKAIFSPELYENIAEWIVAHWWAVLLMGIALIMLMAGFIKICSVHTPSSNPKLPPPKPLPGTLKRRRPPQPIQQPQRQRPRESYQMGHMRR
The experiment is described as follows: FRET assay, inhibition of ADAM10. The text has this: (§1) FRET assay is a method to detect and quantify the fluorescent signal generated when ADAM/ADAMTS proteins […] specific peptides.

A further experiment addresses T2, ADAMTS5 (Homo sapiens, UniProt Q9UNA0).
T2 sequence (Q9UNA0 262-930): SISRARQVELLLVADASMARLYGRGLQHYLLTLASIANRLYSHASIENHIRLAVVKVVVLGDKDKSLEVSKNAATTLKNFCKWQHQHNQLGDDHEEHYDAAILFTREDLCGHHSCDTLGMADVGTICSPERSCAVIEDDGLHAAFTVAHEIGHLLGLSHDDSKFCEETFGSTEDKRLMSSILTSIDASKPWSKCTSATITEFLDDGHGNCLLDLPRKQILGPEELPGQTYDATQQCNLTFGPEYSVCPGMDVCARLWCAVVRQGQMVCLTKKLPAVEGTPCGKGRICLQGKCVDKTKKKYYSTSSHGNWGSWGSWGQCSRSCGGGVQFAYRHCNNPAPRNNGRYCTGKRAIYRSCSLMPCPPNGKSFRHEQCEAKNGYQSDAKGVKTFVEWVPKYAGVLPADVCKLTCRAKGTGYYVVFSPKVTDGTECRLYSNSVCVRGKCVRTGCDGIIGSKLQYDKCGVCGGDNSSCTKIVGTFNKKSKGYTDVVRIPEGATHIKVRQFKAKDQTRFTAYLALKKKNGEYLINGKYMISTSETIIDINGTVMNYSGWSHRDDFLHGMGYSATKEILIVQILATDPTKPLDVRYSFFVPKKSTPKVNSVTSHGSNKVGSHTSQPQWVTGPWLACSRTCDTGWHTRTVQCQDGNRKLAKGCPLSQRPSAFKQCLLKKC
Briefly: FRET assay, inhibition of ADAMTS5. Here is the method:
The control compound GLPG-1972 and four effective compounds (CLS-S210 (Formula 2), CLS-S282 (Formula 3), CLS-S213 (Formula 4), and CLS-S214 (Formula 5)) were treated with ADAMTS5, ADAMTS4, ADAM10, and ADAM17 proteins to perform Fluorescence Resonance Energy Transfer (FRET) evaluation. FRET assay is a method to detect and quantify the fluorescent signal generated when ADAM/ADAMTS proteins […] specific peptides.

The target in the next experiment is ADAM17 (Homo sapiens, UniProt P78536). The experiment is described as follows: FRET assay, inhibition of ADAM17.
Text: as §1

Structures are written as SMILES. pIC50: −log10 of the molar value.

Sequence of ADAM17 (P78536 215-824, species assumed): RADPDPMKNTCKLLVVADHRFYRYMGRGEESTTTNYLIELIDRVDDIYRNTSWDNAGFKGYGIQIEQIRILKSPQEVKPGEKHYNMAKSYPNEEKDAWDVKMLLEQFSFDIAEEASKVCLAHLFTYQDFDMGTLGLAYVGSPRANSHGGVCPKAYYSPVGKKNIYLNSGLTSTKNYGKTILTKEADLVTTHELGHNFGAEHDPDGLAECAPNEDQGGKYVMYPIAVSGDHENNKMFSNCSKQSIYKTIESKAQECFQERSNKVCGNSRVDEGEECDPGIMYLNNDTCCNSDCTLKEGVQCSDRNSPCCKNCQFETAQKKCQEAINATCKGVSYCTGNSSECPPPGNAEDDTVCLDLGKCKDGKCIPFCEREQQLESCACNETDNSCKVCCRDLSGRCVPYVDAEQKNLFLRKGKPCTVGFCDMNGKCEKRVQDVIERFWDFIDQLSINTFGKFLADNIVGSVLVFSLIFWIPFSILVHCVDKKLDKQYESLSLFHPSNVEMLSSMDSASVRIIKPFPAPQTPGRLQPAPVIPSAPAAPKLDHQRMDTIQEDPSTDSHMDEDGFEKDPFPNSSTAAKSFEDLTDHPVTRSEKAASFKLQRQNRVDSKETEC

Take `CNC(=O)[C@@H](NC(=O)[C@H](CCCc1ccccc1)[C@H](C)N(O)C=O)C(C)(C)C` [GI254023X]: the “inhibition ability against ADAM10 (in words)” value against ADAM10 is “inhibit ADAM10 and ADAM17 at low concentrations”.

At ADAMTS5, `C[C@H]1CN(C(=O)CC[C@@]2(C3CC3)NC(=O)NC2=O)CCN1c1cc(F)cc(F)c1` [GLPG-1972] had a pIC50 of 7.19.

`CC(C)C[C@H](CC(=O)NO)C(=O)N[C@@H](Cc1ccc2ccccc2c1)C(=O)N[C@@H](C)C(N)=O` [TAPI-0]: the “inhibition ability against ADAM17 (in words)” value at ADAM17 is “inhibit ADAM10 and ADAM17 at low concentrations”.

As usually defined, the pIC50 is −log10 of the IC50, conventionally taken in molar units. Lower therefore signals a high IC50.
